Columns and labels:
Assay type in all cases: in vivo, mouse
[1] = system: ornithine/citrulline ratio; assay: Anti-fatigue action (plasma ornithine/citrulline ratio); conditions: 30 mg/kg by gavage, C57BL/6J mice, portal vein, 120 min after administration, vs vehicle group
Procedure: The administration medium (0.5% methylcellulose; vehicle) or compound 1 (30 mg/kg) was administered by gavage to male C57BL/6J mice (7 weeks old) that had been under fasting treatment overnight. Blood was collected from the portal vein 120 min after administration, and the plasma ornithine and citrulline concentrations were measured. The ornithine/citrulline ratio in plasma is known as a biomarker that increases during fatigue such as chronic fatigue syndrome and the like (e.g., Yamano E et al., “Index markers of chronic fatigue syndrome with dysfunction of TCA and urea cycles”, Scientific Reports, 2016 Oct. 11; 6:34990, doi: 10.1038/srep34990, which is incorporated herein by reference in its entirety).

acetyl-L-carnitine = assay: Anti-stress, neuroprotective action (plasma acetyl-L-carnitine after restraint stress); conditions: 30 mg/kg oral after 3 hr restraint stress, C57BL/6J mice, 120 min after administration, vs vehicle group
Excerpt: Male C57BL/6J mice (9-week-old) that had been under fasting treatment overnight were housed in a restraint stress cage for mice, and allowed to stand for 3 hr. […] Acetyl-L-carnitine is an endogenous metabolite known to have an anti-stress and neuroprotective action (e.g., Nasca C et al., “L-acetylcarnitine causes rapid antidepressant effects through the epigenetic induction of mGlu2 receptors”, Proc. Natl. Acad. Sci. USA, 2013 Mar. 19; 110 (12): 4804-4809; and Kazak F et al., “Neuroprotective effects of acetyl-1-carnitine on lipopolysaccharide-induced neuroinflammation in mice: Involvement of brain-derived neurotrophic factor”, Neuroscience Letters, 2017 Sep. 29; 658:32-36, which are incorporated herein by reference in their entireties).

FGF21 = FGF21 secretion promoting action (plasma FGF21 concentration); conditions: 30 mg/kg by gavage, C57BL/6J mice, portal vein, 120 min after administration, vs vehicle group
Procedure: The administration medium (0.5% methylcellulose; vehicle) or compound 1 (30 mg/kg) was administered by gavage to male C57BL/6J mice (8 weeks old) that had been under fasting treatment for 6 hr. Blood was collected from the portal vein before administration and 120 min after administration, and the plasma FGF21 concentration was measured.

male C57BL/6J mice = assay: Oral glucose tolerance test (OGTT); conditions: 30 mg/kg oral
Procedure: The administration medium (0.5% methylcellulose; vehicle) or compound 1 (30 mg/kg) was orally administered to male C57BL/6J mice (7 weeks old) that had been fasted from 17 o'clock the day before, and 2 g/kg of glucose was orally administered by gavage 1 hr later. Blood was collected from the tail vein before administration, and 15, 30, 60, 120 and 180 min after administration, and the blood glucose level was measured.
The blood glucose level after glucose loading remained low in the compound 1 administration group from 30 min after loading and thereafter. The results of the area under curve (ΔAUC) of the blood glucose level profile calculated with the 0-minute value as the standard are shown in FIG. 2.

male KK-Ay mice [2] = assay: Intestine permeability (plasma FD-4 after oral FITC-dextran); conditions: 100 mg/kg oral, vs vehicle group
Procedure: The administration medium (0.5% methylcellulose; vehicle) or compound 1 (100 mg/kg) was orally administered to male KK-Ay mice (11 weeks old) that had been fasted from 10 o'clock the day before, and FITC-dextran (FD-4) (300 mg/kg) was orally administered 1 hr later. Blood was collected from the tail vein 1 hr and 2 hr after FD-4 administration, and the plasma FD-4 concentration was measured.

male KK-Ay mice [3] = assay: Insulin tolerance test (ITT); conditions: 30 mg/kg oral, insulin 0.5 U/kg s.c. 1 hr later, profile and ΔAUC vs vehicle group
Procedure: The administration medium (0.5% methylcellulose; vehicle) or compound 1 (30 mg/kg) was orally administered to male KK-Ay mice (7 to 12 weeks old) that had been fasted from 17 o'clock the day before, and insulin (0.5 U/kg) was subcutaneously administered 1 hr later. Blood was collected from the tail vein before administration, and 15, 30, 60, 120 and 180 min after administration, and the blood glucose level was measured. The blood glucose level was also measured for compounds 2 to 6 by a similar method. The results of the area under curve (ΔAUC) of the blood glucose level profile calculated with the 0-minute value as the standard are shown in FIG. 3(b).

Sequence: LIVTQTMKGL (Designed peptide) [compound 1]
- blood ornithine/citrulline ratio [1]: decreased
- blood acetyl-L-carnitine concentration (acetyl-L-carnitine): increase in the blood acetyl-L-carnitine concentration was observed
- blood FGF21 concentration (FGF21): increase in the blood FGF21 concentration was confirmed
- area under curve (ΔAUC) of the blood glucose level profile, OGTT (male C57BL/6J mice; 0-minute value as the standard, vs vehicle group): low value as compared with the vehicle group
- blood glucose level after glucose loading (male C57BL/6J mice; 2 g/kg glucose 1 hr later, from 30 min after loading): remained low
- blood FD-4 concentration (male KK-Ay mice [2]; 1 hr after oral FD-4 (300 mg/kg)): suppression of an increase in the blood FD-4 concentration was observed
- blood FD-4 concentration (male KK-Ay mice [2]; 2 hr after oral FD-4 (300 mg/kg)): suppression of an increase in the blood FD-4 concentration was observed
- blood glucose level after insulin (insulin sensitivity improving effect), ITT (male KK-Ay mice [3]): significant decrease in blood glucose
